Tests used:
hERG (KCNH2) = hERG (KCNH2) (Homo sapiens, UniProt Q12809); assay: Inhibition of human ERG expressed in HEK293 cells assessed as reduction in outward potassium current at 3 uM at holding potential was -80 mV after 5 mins by patch clamp assay; type: cell-based; settings: HEK293 cells that express hERG
[1] = Drug metabolism in human liver microsomes at 1 uM after 15 mins in presence of NADPH by HPLC-MS/MS analysis; type: ADME, microsome; settings: read-out: Drug metabolism
[2] = Fraction unbound in mouse plasma at 5 uM after 4.5 hrs by HPLC-MS/MS method based rapid equilibrium dialysis; type: ADME, cell-free
[3] = Fraction unbound in rat brain at 5 uM after 5 hrs by HPLC-MS/MS method based rapid equilibrium dialysis; type: ADME, tissue-based
[4] = Fraction unbound in dog plasma at 5 uM after 4.5 hrs by HPLC-MS/MS method based rapid equilibrium dialysis; type: ADME, cell-free, Canis lupus familiaris
Cytochrome P450 2C8 = Cytochrome P450 2C8 (Homo sapiens, UniProt P10632); assay: Reversible inhibition of recombinant human CYP2C8 by fluorescence-based assay; type: ADME
Cytochrome P450 2C9 = Cytochrome P450 2C9 (Homo sapiens, UniProt P11712); assay: Reversible inhibition of recombinant human CYP2C9 by fluorescence-based assay; type: ADME
Cytochrome P450 3A4 = Cytochrome P450 3A4 (Homo sapiens, UniProt P08684); assay: Reversible inhibition of recombinant human CYP3A4 by fluorescence-based assay; type: ADME
[5] = target: Kappa-type opioid receptor (Cavia porcellus) (UniProt P41144); assay: Inhibition of Dunkin Hartley guinea pig kappa-type opioid receptor at 10 uM after 5 mins
[6] = Clearance in Sprague-Dawley rat at 2.5 mg/kg, iv administered as bolus dose by LC-MS/MS analysis; type: ADME, organism-based; settings: in vivo
[7] = Volume of distribution at steady state in Sprague-Dawley rat at 2.5 mg/kg, iv administered as bolus dose by LC-MS/MS analysis; type: ADME, organism-based; settings: in vivo, read-out: Vdss
Canis familiaris [8] = assay: Volume of distribution at steady state in Beagle dog at 1 mg/kg, iv administered as bolus dose by LC-MS/MS analysis; type: ADME, organism-based, Canis lupus familiaris; settings: in vivo
Canis familiaris [9] = assay: Half life in Beagle dog at 1 mg/kg, iv administered as bolus dose by LC-MS/MS analysis; type: ADME, organism-based, Canis lupus familiaris; settings: in vivo
[10] = Half life in Sprague-Dawley rat at 2.5 mg/kg, iv administered as bolus dose by LC-MS/MS analysis; type: ADME, organism-based; settings: in vivo
[11] = Cmax in Sprague-Dawley rat at 10 mg/kg, po administered as bolus dose by LC-MS/MS analysis; type: ADME, organism-based; set-up: dose 10 mg/kg, route oral; settings: in vivo
[12] = Cmax in Beagle dog at 10 mg/kg, po administered as bolus dose by LC-MS/MS analysis; type: ADME, organism-based, Canis lupus familiaris; set-up: dose 10 mg/kg, route oral; settings: in vivo
[13] = Tmax in Sprague-Dawley rat at 10 mg/kg, po administered as bolus dose by LC-MS/MS analysis; type: ADME, organism-based; settings: in vivo
[14] = AUC (0 to infinity) in Swiss mouse at 10 mg/kg, po administered as bolus dose by LC-MS/MS analysis; type: ADME, organism-based; set-up: dose 10 mg/kg, time infinity, route oral; settings: in vivo
[15] = AUC (0 to infinity) in Sprague-Dawley rat at 10 mg/kg, po administered as bolus dose by LC-MS/MS analysis; type: ADME, organism-based; set-up: dose 10 mg/kg, route oral, time infinity; settings: in vivo
Mus musculus = assay: Systemic clearance in Swiss mouse at 2.5 mg/kg, iv administered as bolus dose by LC-MS/MS analysis relative to liver blood flow; type: ADME, organism-based; settings: in vivo
Rattus norvegicus [16] = assay: Systemic clearance in Sprague-Dawley rat at 2.5 mg/kg, iv administered as bolus dose by LC-MS/MS analysis relative to liver blood flow; type: ADME, organism-based; settings: in vivo
Canis familiaris [17] = assay: Systemic clearance in Beagle dog at 1 mg/kg, iv administered as bolus dose by LC-MS/MS analysis relative to liver blood flow; type: ADME, organism-based, Canis lupus familiaris; settings: in vivo
Cavia porcellus = assay: Cardiotoxicity in anesthetized guinea pigs assessed as drug level causing QTcB prolongation dosed up to 10 mg/kg, iv administered over a period of 5 min at 15 min interval by ECG analysis; type: toxicity, organism-based; settings: guinea pig, in vivo
Salmonella typhimurium = assay: Mutagenicity in Salmonella typhimurium TA98 up to 500 ug/ml in presence of rat liver S9 fraction by Ames 2 assay; type: toxicity, organism-based; settings: salmonella enterica subsp. enterica serovar typhimurium
[18] = Ratio of drug level in kidney to plasma of Sprague-Dawley rat at 10 mg/kg, po; type: ADME, organism-based
[19] = Ratio of drug level in liver to plasma of Sprague-Dawley rat at 10 mg/kg, po; type: ADME, organism-based
THP-1 = assay: Induction of phospholipidosis in human THP1 cells at 21 uM after […] by ethidiumbromide-based fluorescence assay relative to control; type: cell-based; settings: thp-1, 21 µM
Rattus norvegicus [20] = assay: Toxicity in Sprague-Dawley rat assessed as phospholipidosis at 225 mg/kg/day, po administered via gavage for 1 month followed by 1 month recovery period; type: organism-based; settings: in vivo
Rattus norvegicus [21] = assay: Toxicity in Sprague-Dawley rat assessed as effect on food consumption at 225 mg/kg/day, po administered via gavage for 1 month; type: organism-based; settings: in vivo
[22] = Cmax in male Sprague-Dawley rat at 75 mg/kg, po measured after 1 month repeated dosing by LC-MS/MS analysis; type: ADME, organism-based; set-up: dose 75 mg/kg, route oral; settings: in vivo
[23] = AUC (0 to 24 hrs) in male Sprague-Dawley rat at 75 mg/kg, po measured after 1 month repeated dosing by LC-MS/MS analysis; type: ADME, organism-based; set-up: time < 24 hr, dose 75 mg/kg, route oral; settings: in vivo
[24] = Cmax in female Sprague-Dawley rat at 75 mg/kg, po measured after 1 month repeated dosing by LC-MS/MS analysis; type: ADME, organism-based; set-up: dose 75 mg/kg, route oral; settings: in vivo
Canis familiaris [25] = assay: Toxicity in Beagle dog assessed as drug tolerability at 0.63 to 20 mg/kg, po qd for 6 days; type: organism-based, Canis lupus familiaris; settings: in vivo, 144 h
Canis familiaris [26] = assay: Toxicity in Beagle dog assessed as induction of appearance changes at 0.63 to 20 mg/kg, po qd for 6 days; type: organism-based, Canis lupus familiaris; settings: in vivo, 144 h
Rattus norvegicus [27] = assay: Toxicity in Sprague-Dawley rat assessed as induction of tissue damage at 225 mg/kg/day, po administered via gavage for 1 month; type: organism-based; settings: in vivo
Canis familiaris [28] = assay: Toxicity in beagle dog assessed as induction of ataxia at 70 to 250 mg/kg/day, po qd for 1 week; type: organism-based, Canis lupus familiaris; settings: in vivo, 168 h
Canis familiaris [29] = assay: Toxicity in beagle dog assessed as induction of reduction in general activity at 70 to 250 mg/kg/day, po qd for 1 week; type: organism-based, Canis lupus familiaris; settings: in vivo, 168 h
Canis familiaris [30] = assay: Toxicity in male beagle dog at 20 to 250 mg/kg/day, po qd for 1 month followed by 1 month recovery period; type: organism-based, Canis lupus familiaris; settings: in vivo
Rattus norvegicus [31] = assay: Toxicity in Sprague-Dawley rat assessed as induction of pigmentation at 225 mg/kg/day, po administered via gavage for 1 month; type: organism-based; settings: in vivo
Homo sapiens = organism: Homo sapiens; assay: Selectivity for BACE1 (unknown origin) over BACE2 (unknown origin)
[32] = Cmax in female Beagle dog at 70 mg/kg, po measured after 1 month repeated dosing by LC-MS/MS analysis; settings: in vivo
[33] = AUC (0 to 24 hrs) in male Beagle dog at 70 mg/kg, po measured after 1 month repeated dosing by LC-MS/MS analysis; settings: in vivo

Chain of Cytochrome P450 2C9 (P11712 whole entry): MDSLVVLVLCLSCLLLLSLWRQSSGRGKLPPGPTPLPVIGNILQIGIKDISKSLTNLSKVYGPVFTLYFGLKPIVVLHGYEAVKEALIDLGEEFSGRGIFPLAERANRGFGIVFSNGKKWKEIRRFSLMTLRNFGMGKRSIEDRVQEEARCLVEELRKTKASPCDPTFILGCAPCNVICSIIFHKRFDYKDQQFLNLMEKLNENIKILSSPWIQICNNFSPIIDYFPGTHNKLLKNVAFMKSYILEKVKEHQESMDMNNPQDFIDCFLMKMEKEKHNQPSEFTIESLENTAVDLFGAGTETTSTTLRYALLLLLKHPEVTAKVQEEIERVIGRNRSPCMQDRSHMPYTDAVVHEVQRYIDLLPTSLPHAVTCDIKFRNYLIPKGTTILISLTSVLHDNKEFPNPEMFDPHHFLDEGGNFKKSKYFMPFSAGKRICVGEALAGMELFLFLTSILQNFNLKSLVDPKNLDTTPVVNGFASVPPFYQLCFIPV
Chain of Cytochrome P450 2C8 (P10632 whole entry): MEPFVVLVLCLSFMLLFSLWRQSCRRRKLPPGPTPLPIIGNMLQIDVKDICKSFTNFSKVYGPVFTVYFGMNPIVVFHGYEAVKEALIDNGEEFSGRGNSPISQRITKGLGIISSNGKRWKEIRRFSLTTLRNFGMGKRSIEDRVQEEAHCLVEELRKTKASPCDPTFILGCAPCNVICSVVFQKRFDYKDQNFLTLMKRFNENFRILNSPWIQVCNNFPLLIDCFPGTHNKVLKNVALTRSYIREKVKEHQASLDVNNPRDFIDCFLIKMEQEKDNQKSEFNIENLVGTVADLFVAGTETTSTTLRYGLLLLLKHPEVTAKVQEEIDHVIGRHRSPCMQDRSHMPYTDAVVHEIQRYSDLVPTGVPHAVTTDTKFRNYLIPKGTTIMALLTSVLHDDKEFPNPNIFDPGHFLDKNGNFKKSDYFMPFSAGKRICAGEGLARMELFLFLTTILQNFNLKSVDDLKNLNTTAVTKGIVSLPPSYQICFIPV
Chain of Kappa-type opioid receptor (Cavia porcellus) (P41144 whole entry): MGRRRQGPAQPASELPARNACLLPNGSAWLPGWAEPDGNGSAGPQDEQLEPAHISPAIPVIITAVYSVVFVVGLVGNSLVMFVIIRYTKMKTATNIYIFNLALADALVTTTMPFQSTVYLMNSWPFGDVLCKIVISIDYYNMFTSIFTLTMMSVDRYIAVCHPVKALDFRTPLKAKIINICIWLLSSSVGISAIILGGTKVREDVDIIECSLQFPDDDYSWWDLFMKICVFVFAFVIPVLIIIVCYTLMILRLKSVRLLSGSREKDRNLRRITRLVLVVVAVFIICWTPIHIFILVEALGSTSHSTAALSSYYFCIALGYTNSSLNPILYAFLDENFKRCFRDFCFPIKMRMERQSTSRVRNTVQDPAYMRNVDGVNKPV
Chain of hERG (KCNH2) (Q12809 whole entry): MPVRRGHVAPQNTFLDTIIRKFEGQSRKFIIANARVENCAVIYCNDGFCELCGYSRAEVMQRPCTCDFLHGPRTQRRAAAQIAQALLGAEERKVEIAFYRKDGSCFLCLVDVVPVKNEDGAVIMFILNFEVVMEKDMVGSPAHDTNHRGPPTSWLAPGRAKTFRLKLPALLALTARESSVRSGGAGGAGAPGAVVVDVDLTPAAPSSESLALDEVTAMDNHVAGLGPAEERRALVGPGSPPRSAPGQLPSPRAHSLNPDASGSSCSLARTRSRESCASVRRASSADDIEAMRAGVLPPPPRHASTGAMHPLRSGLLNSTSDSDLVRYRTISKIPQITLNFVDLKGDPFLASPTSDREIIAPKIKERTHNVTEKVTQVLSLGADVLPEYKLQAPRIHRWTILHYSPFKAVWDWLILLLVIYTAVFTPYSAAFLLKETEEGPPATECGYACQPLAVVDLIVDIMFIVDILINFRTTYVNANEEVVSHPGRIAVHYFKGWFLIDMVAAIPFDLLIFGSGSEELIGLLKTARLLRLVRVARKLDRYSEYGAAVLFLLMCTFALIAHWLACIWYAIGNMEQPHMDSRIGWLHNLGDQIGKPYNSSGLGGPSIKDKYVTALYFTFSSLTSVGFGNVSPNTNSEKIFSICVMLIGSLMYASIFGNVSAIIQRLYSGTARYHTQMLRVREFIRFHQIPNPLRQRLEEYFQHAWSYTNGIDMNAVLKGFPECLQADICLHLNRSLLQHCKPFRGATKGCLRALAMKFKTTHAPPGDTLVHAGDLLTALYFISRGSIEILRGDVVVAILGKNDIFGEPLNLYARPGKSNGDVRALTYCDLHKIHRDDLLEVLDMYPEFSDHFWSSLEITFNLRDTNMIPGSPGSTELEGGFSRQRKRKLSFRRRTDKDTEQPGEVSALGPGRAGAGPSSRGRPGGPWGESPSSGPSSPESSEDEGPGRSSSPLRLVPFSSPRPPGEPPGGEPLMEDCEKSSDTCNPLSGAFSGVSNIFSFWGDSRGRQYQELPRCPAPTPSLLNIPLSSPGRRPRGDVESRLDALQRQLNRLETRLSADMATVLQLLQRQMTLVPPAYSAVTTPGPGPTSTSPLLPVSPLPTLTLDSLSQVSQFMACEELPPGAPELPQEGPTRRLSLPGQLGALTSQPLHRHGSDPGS
Chain of Cytochrome P450 3A4 (P08684 whole entry): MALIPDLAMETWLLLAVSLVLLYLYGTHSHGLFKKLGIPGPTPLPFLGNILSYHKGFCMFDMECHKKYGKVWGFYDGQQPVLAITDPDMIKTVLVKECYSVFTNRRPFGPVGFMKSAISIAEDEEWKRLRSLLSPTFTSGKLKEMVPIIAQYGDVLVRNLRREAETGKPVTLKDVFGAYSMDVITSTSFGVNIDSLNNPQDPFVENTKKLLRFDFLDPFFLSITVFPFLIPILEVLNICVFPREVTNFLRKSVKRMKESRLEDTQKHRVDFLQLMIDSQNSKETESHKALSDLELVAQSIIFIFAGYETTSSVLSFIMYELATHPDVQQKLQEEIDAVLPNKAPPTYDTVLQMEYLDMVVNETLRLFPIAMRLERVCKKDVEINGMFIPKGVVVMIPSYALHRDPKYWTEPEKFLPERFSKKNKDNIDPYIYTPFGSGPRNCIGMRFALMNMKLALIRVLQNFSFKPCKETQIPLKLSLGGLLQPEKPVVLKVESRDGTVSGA

SMILES: C[C@]1(c2cc(NC(=O)c3ccc(C#N)cn3)ccc2F)N=C(N)CO[C@H]1C(F)(F)F
- inhibition at 5 min, 3 µM (hERG (KCNH2)): 22%
- metabolised at 0.25 h, 1 µM [1]: 2%
- fraction unbound at 4.5 h, 5 µM [2]: 0.23
- fraction unbound at 5 h, 5 µM [3]: 0.03
- fraction unbound at 4.5 h, 5 µM [4]: 0.26
- IC50 (Cytochrome P450 2C8): > 30 µM
- IC50 (Cytochrome P450 2C9): > 30 µM
- IC50 (Cytochrome P450 3A4): > 30 µM
- inhibition [5]: 76%
- clearance [6]: 47 mL/min/kg
- Vd [7]: 11 L/kg
- Vdss (Canis familiaris [8]): 7.6 L/kg
- t1/2 (Canis familiaris [9]): 12 h
- half-life [10]: 3.9 h
- Cmax [11]: 160 nM
- Cmax [12]: 1090 nM
- Tmax [13]: 2 h
- AUC(0-inf) [14]: 1330 ng·h/mL
- AUC(0-inf) [15]: 1220 ng·h/mL
- CL (Mus musculus): 50%
- CL (Rattus norvegicus [16]): 67%
- CL (Canis familiaris [17]): 25%
- LOAEL (Cavia porcellus): 11500 ng/mL
- NOAEL (Cavia porcellus): 5235 ng/mL
- fLOAEL (Cavia porcellus): 10.1 µM
- fNOAEL (Cavia porcellus): 4.6 µM
- Activity (Salmonella typhimurium): Non-Toxic
- Kp [18]: 19
- Kp [19]: 31
- fold change (FC) (THP-1): 2
- Activity (Rattus norvegicus [20]): Non-Toxic
- Activity (Rattus norvegicus [21]): Non-Toxic
- Cmax at 1 month [22]: 1490 ng/mL
- AUC at 24 h [23]: 13700 ng·h/mL
- Cmax at 1 month [24]: 2720 ng/mL
- Activity (Canis familiaris [25]): Non-Toxic
- Activity (Canis familiaris [26]): Non-Toxic
- Activity (Rattus norvegicus [27]): Non-Toxic
- Activity (Canis familiaris [28]): Toxic
- Activity (Canis familiaris [29]): Toxic
- Activity (Canis familiaris [30]): Non-Toxic
- Activity (Rattus norvegicus [31]): Non-Toxic
- Selectivity ratio (Homo sapiens): 10
- Cmax at 1 month [32]: 2080 ng/mL
- AUC at 24 h [33]: 26300 ng·h/mL
